Molecules are shown by their SMILES. pIC50: −log10 of the molar value.

The target of this assay is PD-1/PD-L1 (Homo sapiens (Human), UniProt Q9NZQ7). The assay is described as follows: PD-1/PD-L1 Homogeneous Time-Resolved Fluorescence (HTRF) Binding Assay. To be noted: recombinant human PD-1 (3 nM) and PD-L1 (10 nM), 25° C., PBS pH 7.4. The procedure, abridged:
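Fc-tagged human PD-1 (25-167, 3 nM) and His-tagged PD-L1 (19-238, 10 nM) preincubated with inhibitor 40 min in PBS pH 7.4, 0.05% Tween-20, 0.1% BSA, 1% DMSO, 25 °C. Binding detected by HTRF (Eu anti-IgG/APC anti-His, 665/620 nm) after 60 min; IC50 from percent control activity.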

Chain of PD-1/PD-L1 (Q9NZQ7 19-238): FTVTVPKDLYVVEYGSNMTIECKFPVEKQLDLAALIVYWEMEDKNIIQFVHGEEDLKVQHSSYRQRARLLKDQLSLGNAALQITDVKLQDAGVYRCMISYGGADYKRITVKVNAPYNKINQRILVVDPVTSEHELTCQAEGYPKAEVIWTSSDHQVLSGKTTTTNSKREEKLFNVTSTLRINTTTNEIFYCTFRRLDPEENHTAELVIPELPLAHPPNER

In the case of `Cc1c(-c2nc3cc(CN4CC[C@@H](C(=O)O)C4)cc(C#N)c3o2)cccc1-c1cccc(-c2nc3c(s2)CN(C(=O)CN2CCC2)C3)c1C` [Example 113, (R)-1-((2-(3′-(5-(2-(azetidin-1-yl)acetyl)-5,6-dihydro-4H-pyrrolo[3,4-d]thiazol-2-yl)-2,2′-dimethylbiphenyl-3-yl)-7-cyanobenzo[d]oxazol-5-yl)methyl)pyrrolidine-3-carboxylic acid], the pIC50 was at least 8.00.

Turning to `CCN(C)CC(=O)N1Cc2nc(-c3cccc(-c4cccc(-c5nc6cc(CN7CC[C@@H](C(=O)O)C7)cc(C#N)c6o5)c4C)c3C)sc2C1` [Example 114, (R)-1-((7-cyano-2-(3′-(5-(2-(ethyl(methyl)amino)acetyl)-5,6-dihydro-4H-pyrrolo[3,4-d]thiazol-2-yl)-2,2′-dimethylbiphenyl-3-yl)benzo[d]oxazol-5-yl)methyl)pyrrolidine-3-carboxylic acid], the pIC50 was at least 8.00.

For `Cc1c(-c2nc3cc(CN4CC[C@@H](C(=O)O)C4)cc(C#N)c3o2)cccc1-c1cccc(-c2nc3c(s2)CN(C(=O)CN2CC[C@](C)(O)C2)C3)c1C` [Example 115, (R)-1-((7-cyano-2-(3′-(5-(2-((S)-3-hydroxy-3-methylpyrrolidin-1-yl)acetyl)-5,6-dihydro-4H-pyrrolo[3,4-d]thiazol-2-yl)-2,2′-dimethylbiphenyl-3-yl)benzo[d]oxazol-5-yl)methyl)pyrrolidine-3-carboxylic acid], the pIC50 was at least 8.00.

Turning to `Cc1c(-c2nc3cc(CN4CC[C@@H](C(=O)O)C4)cc(C#N)c3o2)cccc1-c1cccc(-c2nc3c(s2)CN(C(=O)CN2CC[C@@](C)(O)C2)C3)c1C` [Example 116, (R)-1-((7-cyano-2-(3′-(5-(2-((R)-3-hydroxy-3-methylpyrrolidin-1-yl)acetyl)-5,6-dihydro-4H-pyrrolo[3,4-d]thiazol-2-yl)-2,2′-dimethylbiphenyl-3-yl)benzo[d]oxazol-5-yl)methyl)pyrrolidine-3-carboxylic acid], the pIC50 was at least 8.00.

With `CNC(=O)[C@@H]1CCN(Cc2cc(C#N)c3oc(-c4cccc(-c5cccc(-c6nc7c(s6)CN(C(C)C)CC7)c5C)c4C)nc3c2)C1` [Example 117, (R)-1-((7-cyano-2-(3′-(5-isopropyl-4,5,6,7-tetrahydrothiazolo[5,4-c]pyridin-2-yl)-2,2′-dimethyl-[1,1′-biphenyl]-3-yl)benzo[d]oxazol-5-yl)methyl)-N-methylpyrrolidine-3-carboxamide], the pIC50 was at least 8.00.

Consider `CC(=O)NCCNCc1cc(C#N)c2oc(-c3cccc(-c4cccc(-c5nc6c(s5)CN(C(C)C)CC6)c4C)c3C)nc2c1` [Example 118, N-(2-(((7-cyano-2-(3′-(5-isopropyl-4,5,6,7-tetrahydrothiazolo[5,4-c]pyridin-2-yl)-2,2′-dimethyl-[1,1′-biphenyl]-3-yl)benzo[d]oxazol-5-yl)methyl)amino)ethyl)acetamide], for which the pIC50 is at least 8.00.

For `Cc1c(-c2nc3cc(CN4CC[C@@H](C(=O)NCCO)C4)cc(C#N)c3o2)cccc1-c1cccc(-c2nc3c(s2)CN(C(C)C)CC3)c1C` [Example 119, (R)-1-((7-cyano-2-(3′-(5-isopropyl-4,5,6,7-tetrahydrothiazolo[5,4-c]pyridin-2-yl)-2,2′-dimethyl-[1,1′-biphenyl]-3-yl)benzo[d]oxazol-5-yl)methyl)-N-(2-hydroxyethyl)pyrrolidine-3-carboxamide], the pIC50 is at least 8.00.

For the compound `Cc1c(-c2nc3cc(CNCCO)cc(C#N)c3o2)cccc1-c1cccc(-c2nc3c(s2)CN(C(C)C)CC3)c1C` [Example 120, 5-(((2-hydroxyethyl)amino)methyl)-2-(3′-(5-isopropyl-4,5,6,7-tetrahydrothiazolo[5,4-c]pyridin-2-yl)-2,2′-dimethyl-[1,1′-biphenyl]-3-yl)benzo[d]oxazole-7-carbonitrile], the pIC50 is at least 8.00.

For `Cc1c(-c2nc3cc(CN4CC[C@@H](O)C4)cc(C#N)c3o2)cccc1-c1cccc(-c2nc3c(s2)CN(C(C)C)CC3)c1C` [Example 121, (R)-5-((3-hydroxypyrrolidin-1-yl)methyl)-2-(3′-(5-isopropyl-4,5,6,7-tetrahydrothiazolo[5,4-c]pyridin-2-yl)-2,2′-dimethyl-[1,1′-biphenyl]-3-yl)benzo[d]oxazole-7-carbonitrile], the pIC50 is at least 8.00.

`Cc1c(-c2nc3c(o2)CN(C(=O)CN(C)C)C3)cccc1-c1cccc(-c2nc3cc(CN4CC[C@@H](C(=O)O)C4)cc(C#N)c3o2)c1C` [Example 122, (R)-1-((7-cyano-2-(3′-(5-(dimethylglycyl)-5,6-dihydro-4H-pyrrolo[3,4-d]oxazol-2-yl)-2,2′-dimethyl-[1,1′-biphenyl]-3-yl)benzo[d]oxazol-5-yl)methyl)pyrrolidine-3-carboxylic acid]: the pIC50 is at least 8.00.

On to `Cc1c(-c2nc3c(o2)CN(C(=O)CN(C)C)C3)cccc1-c1cccc(-c2nc3cc(CN4CC(C(=O)O)C4)cc(C#N)c3o2)c1C` [Example 123, 1-((7-cyano-2-(3′-(5-(dimethylglycyl)-5,6-dihydro-4H-pyrrolo[3,4-d]oxazol-2-yl)-2,2′-dimethyl-[1,1′-biphenyl]-3-yl)benzo[d]oxazol-5-yl)methyl)azetidine-3-carboxylic acid], for which the pIC50 is at least 8.00.

`Cc1c(-c2nc3c(o2)CN(C(=O)[C@@H]2CCCN2C)C3)cccc1-c1cccc(-c2nc3cc(CN4CC[C@@H](C(=O)O)C4)cc(C#N)c3o2)c1C` [Example 124, (R)-1-((7-cyano-2-(2,2′-dimethyl-3′-(5-(methyl-L-prolyl)-5,6-dihydro-4H-pyrrolo[3,4-d]oxazol-2-yl)-[1,1′-biphenyl]-3-yl)benzo[d]oxazol-5-yl)methyl)pyrrolidine-3-carboxylic acid]: the pIC50 is at least 8.00.

Consider `Cc1c(-c2nc3c(o2)CN(C(=O)CCN(C)C)C3)cccc1-c1cccc(-c2nc3cc(CN4CC[C@@H](C(=O)O)C4)cc(C#N)c3o2)c1C` [Example 125, (R)-1-((7-cyano-2-(3′-(5-(3-(dimethylamino)propanoyl)-5,6-dihydro-4H-pyrrolo[3,4-d]oxazol-2-yl)-2,2′-dimethyl-[1,1′-biphenyl]-3-yl)benzo[d]oxazol-5-yl)methyl)pyrrolidine-3-carboxylic acid], for which the pIC50 was at least 8.00.

`Cc1c(-c2nc3c(o2)CN(C(=O)CN2CC[C@@H](O)C2)C3)cccc1-c1cccc(-c2nc3cc(CN4CC[C@@H](C(=O)O)C4)cc(C#N)c3o2)c1C` [Example 126, (R)-1-((7-cyano-2-(3′-(5-(2-((R)-3-hydroxypyrrolidin-1-yl)acetyl)-5,6-dihydro-4H-pyrrolo[3,4-d]oxazol-2-yl)-2,2′-dimethyl-[1,1′-biphenyl]-3-yl)benzo[d]oxazol-5-yl)methyl)pyrrolidine-3-carboxylic acid]: the pIC50 was at least 8.00.

Take `Cc1c(-c2nc3c(o2)CN(C(=O)CN2CC(O)C2)C3)cccc1-c1cccc(-c2nc3cc(CN4CC[C@@H](C(=O)O)C4)cc(C#N)c3o2)c1C` [Example 127, (R)-1-((7-cyano-2-(3′-(5-(2-(3-hydroxyazetidin-1-yl)acetyl)-5,6-dihydro-4H-pyrrolo[3,4-d]oxazol-2-yl)-2,2′-dimethyl-[1,1′-biphenyl]-3-yl)benzo[d]oxazol-5-yl)methyl)pyrrolidine-3-carboxylic acid]: the pIC50 was at least 8.00.

For `Cc1c(-c2nc3c(o2)CN(C(=O)CN2CC[C@H](O)C2)C3)cccc1-c1cccc(-c2nc3cc(CN4CC[C@@H](C(=O)O)C4)cc(C#N)c3o2)c1C` [Example 128, (R)-1-((7-cyano-2-(3′-(5-(2-((S)-3-hydroxypyrrolidin-1-yl)acetyl)-5,6-dihydro-4H-pyrrolo[3,4-d]oxazol-2-yl)-2,2′-dimethyl-[1,1′-biphenyl]-3-yl)benzo[d]oxazol-5-yl)methyl)pyrrolidine-3-carboxylic acid], the negative logarithm of the IC50 (pIC50) is at least 8.00.

`Cc1c(-c2nc3c(o2)CN(C(=O)CN2CC(C)(O)C2)C3)cccc1-c1cccc(-c2nc3cc(CN4CC[C@@H](C(=O)O)C4)cc(C#N)c3o2)c1C` [Example 129, (R)-1-((7-cyano-2-(3′-(5-(2-(3-hydroxy-3-methylazetidin-1-yl)acetyl)-5,6-dihydro-4H-pyrrolo[3,4-d]oxazol-2-yl)-2,2′-dimethyl-[1,1′-biphenyl]-3-yl)benzo[d]oxazol-5-yl)methyl)pyrrolidine-3-carboxylic acid]: the pIC50 is at least 8.00.

Take `Cc1c(-c2nc3c(o2)CN(C(=O)CN2CCC2)C3)cccc1-c1cccc(-c2nc3cc(CN4CC[C@@H](C(=O)O)C4)cc(C#N)c3o2)c1C` [Example 130, (R)-1-((2-(3′-(5-(2-(azetidin-1-yl)acetyl)-5,6-dihydro-4H-pyrrolo[3,4-d]oxazol-2-yl)-2,2′-dimethyl-[1,1′-biphenyl]-3-yl)-7-cyanobenzo[d]oxazol-5-yl)methyl)pyrrolidine-3-carboxylic acid]: the pIC50 was at least 8.00.

As for `Cc1c(-c2nc3c(o2)CN(C(=O)CN2CC[C@H](C(=O)O)C2)C3)cccc1-c1cccc(-c2nc3cc(CN4CC[C@@H](O)C4)cc(C#N)c3o2)c1C` [Example 131, (S)-1-(2-(2-(3′-(7-cyano-5-(((R)-3-hydroxypyrrolidin-1-yl)methyl)benzo[d]oxazol-2-yl)-2,2′-dimethyl-[1,1′-biphenyl]-3-yl)-4,6-dihydro-5H-pyrrolo[3,4-d]oxazol-5-yl)-2-oxoethyl)pyrrolidine-3-carboxylic acid], the pIC50 is at least 8.00.

Consider `Cc1c(-c2nc3c(o2)CN(C(=O)CN2CC[C@@H](C(=O)O)C2)C3)cccc1-c1cccc(-c2nc3cc(CN4CC[C@@H](O)C4)cc(C#N)c3o2)c1C` [Example 132, (R)-1-(2-(2-(3′-(7-cyano-5-(((R)-3-hydroxypyrrolidin-1-yl)methyl)benzo[d]oxazol-2-yl)-2,2′-dimethyl-[1,1′-biphenyl]-3-yl)-4,6-dihydro-5H-pyrrolo[3,4-d]oxazol-5-yl)-2-oxoethyl)pyrrolidine-3-carboxylic acid], for which the pIC50 was at least 8.00.

The term pIC50 denotes the IC50 on a negative log10 scale, so that one unit is a factor of ten.

The values above are taken from patent US10308644B2, “Heterocyclic compounds as immunomodulators” (Incyte Corporation, priority 2016, dated 2019).
